The values below come from PMC7866262, “Laccase-Catalyzed 1,4-Dioxane-Mediated Synthesis of Belladine N-Oxides with Anti-Influenza A Virus Activity” (International Journal of Molecular Sciences, 2021).

Like-named read-outs stand apart in the source and are kept apart here.

The subject of series [1] is influenza A/Puerto Rico/8/34 H1N1 (PR8) virus. Kind of series: microbe, parasite or virus in culture. The format is cell-based. The following applies: for IC50: Influenza A virus.
Series [2] shares this test system. Kind of series: microbe, parasite or virus in culture. The format is cell-based. The following applies: for IC50: Influenza A virus, 24 h, read-out: IC50 (concentration of compound causing 50% reduction of viral infection).
Series [3] is described as follows: in vitro. The following applies: human.
A short description of series [4]: in vitro. Conditions: dog.
In series [5] the test system is influenza A/Puerto Rico/8/34 H1N1 (PR8) virus. The format is cell-based.
[6] abbreviates: A549, 24 h, read-out: IC50 (concentration of compound causing 50% reduction of viral infection).

For `COc1cc(Br)c(C[N+](C)([O-])CCc2ccc(O)cc2)cc1O` (stereo not drawn) [Compound 9, N-(2-Bromo-5-Hydroxy-4-Methoxybenzyl)-2-(4-Hydroxyphenyl)-N-Methylethan-1-Amine Oxide], the IC50 in series [1] (setting [6]) worked out at 377 ± 11.4 µM; in series [2], 86.8 ± 5.1 µM. Moreover, the CC50 at 24 h in “in vitro [3]” stood at 211 ± 8.1 µM. The same molecule came in with a CC50 in the series “in vitro [4]” of 206 ± 7.9 µM.
The corresponding values for `COc1ccc(C[N+](C)([O-])CCc2ccc(O)cc2)cc1O` (stereo not drawn) [Compound 12a, N-(3-Hydroxy-4-Methoxybenzyl)-2-(4-Hydroxyphenyl)-N-Methylethan-1-Amine Oxide] are 78.8 ± 4.3 µM, 137 ± 5.9 µM, 200 ± 7.1 µM and 137 ± 5.8 µM.
As for `C[N+]([O-])(CCc1ccc(O)cc1)Cc1cccc(O)c1` (stereo not drawn) [Compound 12b, N-(3-hydroxybenzyl)-2-(4-hydroxyphenyl)-N-methylethan-1-amine oxide], the IC50 in series [1] (setting [6]) came to 83.2 ± 5.1 µM; in series [2] it was 138 ± 6.1 µM. In the series “in vitro [3]”, the CC50 at 24 h came to 149 ± 6.2 µM. The same molecule showed a CC50 in the series “in vitro [4]” of 129 ± 6 µM.
As for `C[N+]([O-])(CCc1ccc(O)cc1)Cc1ccc(O)cc1` (stereo not drawn) [Compound 12c, N-(4-Hydroxybenzyl)-2-(4-Hydroxyphenyl)-N-Methylethan-1-Amine Oxide], the IC50 amounted to 80.2 ± 4.9 µM in series [1] (setting [6]) and 84.7 ± 4.8 µM in series [2]. For the same molecule, in the series “in vitro [3]”, the CC50 at 24 h came to 83.8 ± 5 µM. For the same molecule, the CC50 in “in vitro [4]” is 114 ± 5.2 µM.
`C[N+]([O-])(CCc1ccc(O)cc1)Cc1ccc([N+](=O)[O-])c(O)c1` (stereo not drawn) [Compound 12d, N-(3-Hydroxy-4-Nitrobenzyl)-2-(4-Hydroxyphenyl)-N-Methylethan-1-Amine Oxide]: the “antiviral activity against influenza A virus (in words)” value in series [1] was “deprived the molecule of antiviral activity”. Further, the IC50 in series [1] (setting [6]) came to 1240 ± 30.2 µM; in series [2] it was 70.2 ± 4 µM. Also, the values for the CC50 in the series “in vitro [3]” and in “in vitro [4]” were 113 ± 6.1 µM and 101 ± 4.9 µM, respectively.
As for `C[N+]([O-])(CCc1ccc(O)cc1)Cc1ccccc1` (stereo not drawn) [Compound 12e, N-Benzyl-2-(4-Hydroxyphenyl)-N-Methylethan-1-Amine Oxide], in series [2], the “SI (Selectivity Index, CC50/IC50)” value was 0.81 and the IC50 came to 133 ± 5.8 µM. Besides, in the series “in vitro [4]”, the CC50 was 109 ± 5.1 µM.
For the molecule `C[N+]([O-])(CCCc1ccccc1)Cc1cccc(O)c1` (stereo not drawn) [Compound 12h, N-(3-Hydroxybenzyl)-N-Methyl-3-Phenylpropan-1-Amine Oxide], the IC50 in series [1] (setting [6]) was 70.4 ± 3.1 µM; in series [1] (A549, read-out: IC50 range against viral replication), 70 to 73 µg/mL; in series [2] it was 73.2 ± 3.3 µM. The “foci of infection in cell monolayers” value in series [5] is on record as “reduction of foci of infection”. For the same molecule, the CC50 in the series “in vitro [3]” was 287 ± 8.3 µM; in the series “in vitro [4]”, 221 ± 8.9 µM.
